Test results: patent US20060234960A1, “Methods and compositions for increasing the safety and efficacy of albumin-binding drugs” (priority 2005, published 2006)
pIC50: −log10 of the molar value.

Assays:
[1] = murine vs human blood; cited from earlier work
[2] = whole human blood; cited from earlier work
brain cancer = conditions: cited from earlier work
human serum albumin [3] = biological target: T1, human serum albumin (Homo sapiens, UniProt P02768)
Description: Salus™ Drug Combinatorial Agents were identified using the CADEX knowledge base.

[4] = tested on: human MRC-5 lung fibroblast cell line; assay: IC50 in human MRC-5 lung fibroblast cell line (in vitro toxicity); format: cell-based; conditions: best case scenario
Description: Therapeutic index is defined as the ratio of the median lethal dose (LD50) to the median effective dose (ED50). […] While animal tests are at best only about 65 percent predictive of human acute toxicity, a combination of four cell tests can determine of a substance is dangerous to humans with better than 80 percent precision.
(§1) We have decided to use the human MRC-5 lung fibroblast cell line to test IC50 of 10-hydroxycamptothecin (10-HC) in the absence and presence of Salus™ 301. The ED50 values were determined with human MDA-MB-435S breast carcinoma cell line.

[5] = tested on: human MDA-MB-435S breast carcinoma cell line; assay: Cytotoxicity for breast cancer cells (MDA-MB-435S), XTT; format: cell-based; conditions: for ability to kill breast cancer cells in the presence of Salus (301): FIGS. 9-13, with vs without Salus agent
Description: To further validate the concept in vitro studies using human breast cell carcinoma line and clinically approved blood concentrations of both clofibrate (301) and 10-hydroxycamptothecin were performed. FIG. 9 graphs the results GI 50 below. […] Additionally at clinically approved concentrations of both drugs in the presence of blood concentrations of human serum albumin, without Salus, approximately 33% of the cells were surviving at the end of the test vs. approximately 2%.
as §1
Cytotoxicity of DRUG for Breast Cancer Cells (MDA-MB-435S)
• 1. Count number of cells in flask. The final concentration of cells in each well should be between 5000-40000 cells/well (100,000-800,000 cells/ml). Dilute cells to proper concentration using Leibovitz's L-15 supplemented with 10% FBS and 0.1% insulin. Add 100 μl of cells into the microplate using repeating pipette. Be sure to vortex tube before adding to plate. Allow plate to incubate for 24 hours at 37° C. (Note: wells A1-H1, A1-H11 will contain only medium for evaporation purposes. Well A2 will contain no cells, only medium and will be used in experiment.) • Medium: Leibovitz's L-15 medium. • 2. Albumin: • Make 60 mg/ml in HSA (900 mg HSA+13.3 ml medium). Use Sigma HSA A-8763 • Make 5 ml of 60 mg/ml HSA with 2 mM 301 (2.33 mg 301 for 5.4 ml HSA). • Make 1 ml of 2 mM 301 in medium (0.53 mg in 1.23 ml medium). Dilute 200 μl in 200 μl medium to make 1 mM 301. • Make DRUG stock in DMSO Stock molarity=1000× conc. of highest test sample (ex. if 2 μM is needed, then stock needs to be 2 mM.) This will vary with each drug based on dosage of drug. For Cancer Cells, the highest concentration should be 1-2 times greater than the dosage for the drug. • 3. Make the test concentrations in advance of testing (5-24 hours prior to testing): The test concentrations will be made at double the concentration, 100 μl will be added into the 100 μl of the cells, making the final concentrations the same as those shown on the microplate chart. Change medium in plate (using the L-15 supplemented with 10% FBS and 0.1% insulin prior to loading test concentrations. • 100% cells: 100 μl of medium • medium: 100 μl of medium • 0.5 mM 301: add 100 μl of 1 mM 301 made in medium • 0.5 mM 301 with HSA: add 100 μl of 1 mM 301 with 30 mg/ml HSA • 1 mM 301: add 100 μl of 2 mM 301 made in medium • 1 mM 301 with HSA: add 100 μl of 2 mM 301 with 30 mg/ml HSA • 30 mg/ml HSA: add 100 μl of 60 mg/ml HSA made in medium (2 wells) • Dosage of DRUG: make a 1:500 dilution, using medium as the diluent. Make 2-fold serial dilutions into 300 μl of medium (600 μl total volume). Be sure to make dilutions before adding into wells. • 30×HSA & Dosage DRUG: Follow same serial dilution procedure as above with the DRUG, but the diluent should be medium +60 mg/ml HSA • 30×HSA, 0.5 mM 301 & DRUG: Follow same serial dilution procedure as above with the DRUG, but the diluent should be medium +60 mg/ml HSA with 1 mM 301 • 30×HSA, 1 mM 301 & 2 μM DRUG: Follow same serial dilution procedure as above with the DRUG, but the diluent should be medium +60 mg/ml HSA with 2 mM 301. • Allow these to incubate at 37° C. overnight. After the microplate has been incubating for 24 hours, add the above test concentrations into the appropriate well (see Chart for microplate information). Allow plate to incubate an additional 48 hours. After 48 Hours: • 4. Under sterile hood, reconstitute the XTT vial with 5 ml of medium. • 5. Remove all liquid from wells. Wash with medium, remove, then fill wells with 200 μl of fresh medium. • 6. Add 40 μl of XTT to all wells. • 7. Allow wells to incubate 2 hours. • 8. Read the plate in the microplate reader using a 655 nm reading as a reference wavelength. The read at 450 nm. Subtract the 655 nm reading from the 450 reading. […]

human serum albumin [6] = biological target: T1, human serum albumin; conditions: carboxylate vs lactone form; cited from earlier work
[7] = tested on: human cancer xenografts lines; conditions: immunodeficient (nude) mice; cited from earlier work
human serum albumin [8] = biological target: T1, human serum albumin; assay: X-ray structure of human serum albumin complexes (binding site); conditions: X-ray crystallography
human serum albumin [9] = biological target: T1, human serum albumin; conditions: Topotecan alone, comparison for Camptothecin with Salus agent; cited from earlier work

T1 sequence (P02768 25-609): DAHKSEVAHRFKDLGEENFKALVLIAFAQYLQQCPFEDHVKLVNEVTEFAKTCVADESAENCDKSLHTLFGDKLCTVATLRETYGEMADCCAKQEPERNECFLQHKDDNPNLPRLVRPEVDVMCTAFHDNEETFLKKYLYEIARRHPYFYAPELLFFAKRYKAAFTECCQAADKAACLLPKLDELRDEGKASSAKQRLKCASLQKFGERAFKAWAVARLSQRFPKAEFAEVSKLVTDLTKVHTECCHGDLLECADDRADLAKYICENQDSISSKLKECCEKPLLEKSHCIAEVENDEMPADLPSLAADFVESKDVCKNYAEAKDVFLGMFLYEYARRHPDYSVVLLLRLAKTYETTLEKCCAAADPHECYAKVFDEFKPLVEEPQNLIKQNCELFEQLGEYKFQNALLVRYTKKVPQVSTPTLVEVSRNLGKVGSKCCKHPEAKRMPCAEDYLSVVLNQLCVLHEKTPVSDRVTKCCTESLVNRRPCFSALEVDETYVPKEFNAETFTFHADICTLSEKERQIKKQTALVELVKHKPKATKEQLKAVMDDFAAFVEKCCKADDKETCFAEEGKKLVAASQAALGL

Q: For `CC[C@@]1(O)C(=O)OCc2c1cc1n(c2=O)Cc2cc3c(N)cccc3nc2-1` [9-aminocamptothecin], which “lactone levels in murine blood relative to human blood” value [1] is on record?
A: approximately 100 fold

Q: And the “drug remaining in the lactone form at equilibrium” value (shortened to “drug remaining in the lactone form”) [2]?
A: 0.5%

Q: And the efficacy of therapy (brain cancer; 99 brain cancer patients, intravenous)?
A: grossly ineffective

Q: What about the “drug in the carboxylate form” value (brain cancer; patients treated intravenously, stated as likelihood) of the same compound?
A: 99.5%

Q: Which “increase of active lactone form with the selected Salus agent” value (human serum albumin [3]) does the source give for `CC[C@@]1(O)C(=O)OCc2c1cc1n(c2=O)Cc2cc3c([N+](=O)[O-])cccc3nc2-1` [9-nitro-Camptothecin] here?
A: Equally dramatic results

Q: With `CC[C@@]1(O)C(=O)OCc2c1cc1n(c2=O)Cc2cc3cc(O)ccc3nc2-1` [10-HC, 10-hydroxycamptothecin] as the compound, how does the pIC50 ([4]; with 0.5 mM 301) read?
A: 5.22

Q: And the pIC50 ([4]; with 1.0 mM 301)?
A: 5.48

Q: And the pIC50 ([4]; without 301)?
A: 5.17

Q: What about the “increase of active lactone form with the selected Salus agent” value (human serum albumin [3]) of the same compound?
A: Equally dramatic results

Q: What about the “ability to kill breast cancer cells in the presence of Salus (301)” value (from here on “ability to kill breast cancer cells”) [5] of the same compound?
A: improvement

Q: What about the “cells surviving at the end of the test” value ([5]; with Salus (clofibrate, 301), clinically approved concentrations of both drugs, blood concentrations of human serum albumin) of the same compound?
A: approximately 2%

Q: What about the “improvement in the GI 50 values” ([5]; with clofibrate (301) vs without, blood concentrations of human serum albumin) of the same compound?
A: approximately 16 fold

Q: What about the “cells surviving at the end of the test” value ([5]; without Salus, clinically approved concentration, blood concentrations of human serum albumin) of the same compound?
A: approximately 33%

Q: With `CC[C@@]1(O)C(=O)OCc2c1cc1n(c2=O)Cc2cc3ccccc3nc2-1` [Camptothecin] as the compound, how does the “enhancement in affinity for HSA of carboxylate form over lactone form” value (human serum albumin [6]) read?
A: 150 fold

Q: What about the “drug remaining in the lactone form” value [2] of the same compound?
A: 5.3%

Q: What about the “number of human cancer xenografts lines in which effective” value [7] of the same compound?
A: more than 13

Q: What about the “binding location on human serum albumin” value (human serum albumin [8]) of the same compound?
A: distinct pocket within IB subdomain

Q: With `COc1cccc2c1C(=O)c1c(O)c3c(c(O)c1C2=O)C[C@@](O)(C(=O)CO)C[C@@H]3O[C@H]1C[C@H](N)[C@H](O)[C@H](C)O1` [Doxorubicin] as the compound, how does the “ability to kill breast cancer cells” value [5] read?
A: improvement

Q: Which “ability to kill breast cancer cells” value [5] does the source give for `COc1cccc2c1C(=O)c1c(O)c3c(c(O)c1C2=O)C[C@@](O)(C(=O)CO)C[C@@H]3O[C@H]1C[C@H](N)[C@@H](O)[C@H](C)O1` [Epirubicin] here?
A: improvement

Q: For `CCc1c2c(nc3ccc(O)cc13)-c1cc3c(c(=O)n1C2)COC(=O)[C@]3(O)CC` [SN-38], which “drug remaining in the lactone form” value [2] is on record?
A: 19.5%

Q: With `COc1cc([C@@H]2c3cc4c(cc3[C@@H](O[C@@H]3O[C@@H]5CO[C@@H](c6cccs6)O[C@H]5[C@H](O)[C@H]3O)[C@H]3COC(=O)[C@H]23)OCO4)cc(OC)c1O` [Teniposide] as the compound, how does the “ability to kill breast cancer cells” value [5] read?
A: improvement

Q: What does the source list for `CC[C@@]1(O)C(=O)OCc2c1cc1n(c2=O)Cc2cc3c(CN(C)C)c(O)ccc3nc2-1` [Topotecan]?
A: level of active lactone form (comparison value) (human serum albumin [9]): 12%; drug remaining in the lactone form at equilibrium [2]: 11.9%; ability to kill breast cancer cells in the presence of Salus (301) [5]: improvement
